Reference: US20240158418A1 (C4 Therapeutics, Inc., priority 2021, published 2024)

Columns and labels:
EGFR-L861Q = target: T1, EGFR-L861Q (Homo sapiens, UniProt P00533, L861Q); experiment: KINOMEscan scanMAX, EGFR-L861Q; format: binding; settings: 100 nM
T1 construct: purchased Eurofins DiscoverX KINOMEscan scanMAX; host or cells: E. coli BL21-derived (T7 phage) or HEK-293
Method: Kinome-wide binding selectivity of CFT8919 was assessed via the KINOMEscan scanMAX assay at Eurofins DiscoverX (Freemont, CA, USA). Compound was tested at 100 nM against a diverse panel of 468 kinases. The size of circles was mapped onto the kinase phylogenetic tree utilizing DiscoverX TREEspot using <50% of % control as a cutoff.
For most assays, kinase-tagged T7 phage strains were grown in parallel in 24-well blocks in an E. coli host derived from the BL21 strain. E. coli were grown to log-phase and infected with T7 phage from a frozen stock (multiplicity of infection=0.4) and incubated with shaking at 32° C. until lysis (90-150 minutes). The lysates were centrifuged (6,000×g) and filtered (0.2 μm) to remove cell debris. The remaining kinases were produced in HEK-293 cells and subsequently tagged with DNA for qPCR detection. Streptavidin-coated magnetic beads were treated with biotinylated small molecule ligands for 30 minutes at room temperature to generate affinity resins for kinase assays. The liganded beads were blocked with excess biotin and washed with blocking buffer (SeaBlock (Pierce), 1% BSA, 0.05% Tween 20, 1 mM DTT) to remove unbound ligand and to reduce non-specific phage binding. […] Test compounds were prepared as 40× stocks in 100% DMSO and directly diluted into the assay. […] The kinase concentration in the eluates was measured by qPCR.

[1] = target: T2, Sal-like protein 4 (SALL4) (Homo sapiens, UniProt Q9UJQ4); experiment: SALL4 degradation, HiBiT-tagged SALL4 in KELLY cells; format: cell-based; settings: 6 hours, up to 10 μM
T2 construct: Endogenous expression of SALL4 in KELLY cells was determined by addition of C-terminal HiBiT tag; host or cells: KELLY (CRISPR-Cas9 HiBiT knock-in)
Method: Specific studies were carried out to assess the ability of Compound 1 to degrade Sal-like protein 4 (SALL4), a protein implicated in the teratogenicity induced by the IMiD®s class of IKZF1/IKZF3 degraders including lenalidomide (Matyskiela et al., Crystal structure of the SALL4-pomalidomide-cereblon-DDB1 complex, Nature Structural and Molecular Biology, (2020) 27, 319-322). Endogenous expression of SALL4 in KELLY cells was determined by addition of C-terminal HiBiT tag to the KELLY cell line (DSMZ ACC355) using CRISPR-Cas9. Briefly, test compound was added to 384-well plates at a top concentration of 1 μM with 11 points, half log titration in duplicates. KELLY cells expressing HiBiT-tagged SALL4 were seeded into the 384-well plates in RPMI medium containing 10% FBS and 2 mM pyruvate at a cell density of 6000 cells per well. Cells treated in the absence of the test compound were the negative control and wells containing media only were the positive control. Following compound treatment, cells were incubated at 37° C. with 5% CO2 for 6 hr. HiBiT signal was determined using Nano-Glo™ HiBiT Lytic Assay System (Promega, N3050) and luminescence was acquired on EnVision™ Multilabel Reader (PerkinElmer, Santa Clara, CA, USA). % SALL4 remaining was determined by normalizing the signal with positive and negative controls on the same microtiter plate. Data in FIG. 7 are expressed as the mean±SD. […]

[2] = system: intracranial NCI-H1975-luciferase expressing tumors; experiment: NCI-H1975-luc intracranial tumor model (intracarotid artery injection): BLI, body weight, survival; format: in vivo, female BALB/c nude mice; settings: intracranial model with intracarotid implantation, oral dosing
Method: Female BALB/c nude mice were inoculated by intracarotid injection with NCI-H1975-luc cells (1×10^5 in 100 μL PBS) for tumor development. Tumor growth was monitored using imaging analysis. Tumor-bearing mice were weighed and injected intraperitoneally with luciferin at a dose of 150 mg/kg and anesthetized with a mixture gas of oxygen and isoflurane. 10 minutes post luciferin injection, mice were imaged using IVIS Lumina III machine and total bioluminescence signal (BLI, photons/s) was measured in a region of interest (ROI). BLI from ROI were quantified and used as an indicator of tumor burden. Twenty days post tumor cell inoculation mice were randomized into groups of 6 with a mean BLI of 1.08×10^6 photons/s. Compound 1 was dosed orally (PO) twice a day at 50 mg/kg and was formulated in 20% PEG400+80% (25% SBECD, “sulfobutylether-β-cyclodextrin”) in double distilled H2Om which was also used as the vehicle control. Body weight and MTV were measured on a 2× weekly schedule. Survival data was also measured and is represented as median survival time±SEM.

EGFR L858R = EGFR L858R (Homo sapiens, UniProt P00533, L858R); experiment: Differential scanning fluorimetry (DSF); format: binding; settings: EGFR (L858R) 10 μM, compound 100 μM, vs apo protein +DMSO TM = 45.4° C.
Method: The protein was incubated at 10 μM in buffer (100 mM HEPES pH 7.5 and 150 mM NaCl) with DMSO to determine the stability of the protein alone. In addition, the protein (10 μM) was incubated with each compound (100 μM) individually, or in combination, for 30 min on ice. Protein stability was measured in the presence of 4×SYPRO™ Orange dye (Thermo Fisher) using a ViiA7 Real-Time PCR System (Thermo Fisher) adapted for thermal melts. Reactions of 20 μL were run in quadruplicate using Microamp Optical 384-well reaction plates (Applied Biosystems). Temperature was increased by 0.5° C. intervals from 25° C. to 99° C. and fluorescence intensity was measured. In-house curve fitting analysis software was used to calculate the thermal melting point (TM) of the protein in each reaction.

pERK = experiment: Western blot NCI-H3255, Compound 1 with or without osimertinib: phospho-ERK; format: cell-based, human; settings: NCI-H3255, six hours, 0-1,500 nM, presence and absence of 1,500 nM osimertinib
Description: The compound bearing solutions were formulated to achieve a 0.1% final concentration of DMSO. […] Antibodies used in western blot were purchased from the following vendors: EGFR-L858R specific antibody (CST 3197), pY1068 EGFR (CST 2234), pERK (CST 4370), ERK (CST 4695), vinculin (Millipore 05-386).

T2 sequence (Q96SW2 whole entry partner): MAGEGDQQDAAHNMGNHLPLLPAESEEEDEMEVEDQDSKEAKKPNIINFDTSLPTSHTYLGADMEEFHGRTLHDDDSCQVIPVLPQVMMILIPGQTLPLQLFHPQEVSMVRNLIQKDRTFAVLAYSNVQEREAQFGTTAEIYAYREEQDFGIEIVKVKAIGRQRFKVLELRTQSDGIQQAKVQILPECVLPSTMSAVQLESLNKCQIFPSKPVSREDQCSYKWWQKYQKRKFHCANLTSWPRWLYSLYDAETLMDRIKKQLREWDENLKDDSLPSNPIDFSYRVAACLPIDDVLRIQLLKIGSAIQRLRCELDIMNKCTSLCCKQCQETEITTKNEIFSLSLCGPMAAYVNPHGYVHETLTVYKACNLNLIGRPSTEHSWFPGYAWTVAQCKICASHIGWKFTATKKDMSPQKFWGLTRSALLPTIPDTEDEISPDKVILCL
T2 sequence (Q16531 whole entry partner): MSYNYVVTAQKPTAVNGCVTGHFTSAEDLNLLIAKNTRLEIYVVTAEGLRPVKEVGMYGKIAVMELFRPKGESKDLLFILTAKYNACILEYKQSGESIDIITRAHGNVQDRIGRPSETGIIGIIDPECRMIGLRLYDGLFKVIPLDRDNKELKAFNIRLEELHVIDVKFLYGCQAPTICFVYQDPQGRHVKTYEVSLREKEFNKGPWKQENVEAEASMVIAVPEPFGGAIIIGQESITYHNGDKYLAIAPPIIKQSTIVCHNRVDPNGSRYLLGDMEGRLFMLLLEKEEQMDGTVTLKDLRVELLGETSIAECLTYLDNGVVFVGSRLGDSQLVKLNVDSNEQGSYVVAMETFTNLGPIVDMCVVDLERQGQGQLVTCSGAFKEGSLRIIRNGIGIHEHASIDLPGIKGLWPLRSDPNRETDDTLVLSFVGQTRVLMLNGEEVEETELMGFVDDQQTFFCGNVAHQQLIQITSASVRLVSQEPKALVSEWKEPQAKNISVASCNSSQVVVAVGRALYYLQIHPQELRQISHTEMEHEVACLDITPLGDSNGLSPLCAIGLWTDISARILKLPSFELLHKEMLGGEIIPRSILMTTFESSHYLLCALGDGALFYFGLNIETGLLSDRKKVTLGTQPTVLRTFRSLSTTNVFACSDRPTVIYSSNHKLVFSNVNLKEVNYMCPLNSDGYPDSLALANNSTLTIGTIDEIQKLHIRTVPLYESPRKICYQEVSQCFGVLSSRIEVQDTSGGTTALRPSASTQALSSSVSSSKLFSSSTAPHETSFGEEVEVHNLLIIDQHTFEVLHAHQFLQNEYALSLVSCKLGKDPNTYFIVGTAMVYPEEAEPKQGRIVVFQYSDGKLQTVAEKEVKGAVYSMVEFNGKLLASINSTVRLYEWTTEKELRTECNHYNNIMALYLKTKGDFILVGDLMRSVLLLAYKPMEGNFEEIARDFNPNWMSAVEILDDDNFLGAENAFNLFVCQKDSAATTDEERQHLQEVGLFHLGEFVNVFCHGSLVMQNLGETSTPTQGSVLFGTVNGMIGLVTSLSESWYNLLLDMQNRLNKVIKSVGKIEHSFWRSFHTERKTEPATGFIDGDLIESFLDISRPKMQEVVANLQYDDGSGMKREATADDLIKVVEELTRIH
T2 sequence (Q9UJQ4 whole entry): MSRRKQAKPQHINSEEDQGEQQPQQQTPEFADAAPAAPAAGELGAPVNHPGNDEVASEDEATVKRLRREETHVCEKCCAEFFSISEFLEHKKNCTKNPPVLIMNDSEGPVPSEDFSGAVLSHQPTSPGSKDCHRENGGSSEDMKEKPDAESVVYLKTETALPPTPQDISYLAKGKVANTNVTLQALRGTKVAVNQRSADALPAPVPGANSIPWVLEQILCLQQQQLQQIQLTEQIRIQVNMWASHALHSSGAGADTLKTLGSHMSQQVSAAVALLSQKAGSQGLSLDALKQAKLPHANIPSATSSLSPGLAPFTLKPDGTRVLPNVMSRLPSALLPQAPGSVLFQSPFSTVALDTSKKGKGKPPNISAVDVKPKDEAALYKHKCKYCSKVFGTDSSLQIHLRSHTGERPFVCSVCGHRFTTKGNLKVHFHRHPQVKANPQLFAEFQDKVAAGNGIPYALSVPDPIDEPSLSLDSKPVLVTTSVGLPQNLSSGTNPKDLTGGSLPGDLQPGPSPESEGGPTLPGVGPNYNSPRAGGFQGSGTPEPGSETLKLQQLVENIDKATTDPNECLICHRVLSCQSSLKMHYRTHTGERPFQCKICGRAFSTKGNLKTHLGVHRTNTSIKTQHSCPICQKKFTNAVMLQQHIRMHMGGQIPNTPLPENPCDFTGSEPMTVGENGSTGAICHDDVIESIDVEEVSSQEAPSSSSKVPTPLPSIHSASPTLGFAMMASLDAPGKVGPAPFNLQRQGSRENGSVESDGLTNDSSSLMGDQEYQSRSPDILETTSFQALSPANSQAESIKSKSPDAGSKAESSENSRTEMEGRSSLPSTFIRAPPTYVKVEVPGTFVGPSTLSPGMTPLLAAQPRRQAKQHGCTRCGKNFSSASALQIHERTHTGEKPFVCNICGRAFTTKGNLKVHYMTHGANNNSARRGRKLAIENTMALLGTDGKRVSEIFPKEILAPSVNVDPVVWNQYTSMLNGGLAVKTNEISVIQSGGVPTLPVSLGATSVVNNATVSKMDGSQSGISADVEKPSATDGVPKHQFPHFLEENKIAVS

O=C1CC[C@H](Nc2ccc(N3CCC(O)(CC(=O)N4CC5(C4)CN(c4ccc(-c6cc(F)c7c(c6)C(=O)N(C(C(=O)Nc6nccs6)c6ncn8c6CCC8)C7)cc4)C5)CC3)c(F)c2)C(=O)N1 (stereo partly drawn) [Compound 1, 2-(6,7-dihydro-5H-pyrrolo[1,2-c]imidazol-1-yl)-2-[6-[4-[2-[2-[1-[4-[[(3S)-2,6-dioxo-3-piperidyl]amino]-2-fluoro-phenyl]-4-hydroxy-4-piperidyl]acetyl]-2,6-diazaspiro[3.3]heptan-6-yl]phenyl]-4-fluoro-1-oxo-isoindolin-2-yl]-N-thiazol-2-yl-acetamide]
percent binding remaining (EGFR-L861Q): < 50%
SALL4 degradation (% SALL4 remaining) [1]: no effect
efficacy on NCI-H1975-luc BLI (tumor burden) [2]: tumor regression
ΔTm at 100 µM (EGFR L858R): 5.8 °C
phospho-ERK inhibition (western blot) (pERK): inhibited
